{"source": "ChEMBL document CHEMBL3885881", "about": "“DrugMatrix”", "species_on_record": "Rattus norvegicus", "test": "DrugMatrix - Regimen: Daily Repeat", "format": "toxicity, organism-based, Sprague-Dawley", "parameters": "regimen Daily Repeat, gender Male, age 6-8 weeks", "conditions": "in vivo, po, 0 mg/kg, route oral GAVAGE, dose level Control, vehicle .5 % CMC; for BASOPHIL / EOSINOPHIL / ERYTHROCYTE COUNT / HEMATOCRIT / HEMOGLOBIN / LEUKOCYTE COUNT / LYMPHOCYTE / MEAN CORPUSCULAR HEMOGLOBIN / MEAN CORPUSCULAR HEMOGLOBIN CONCENTRATION / MEAN CORPUSCULAR VOLUME / MONOCYTE / NEUTROPHIL / PLATELET COUNT / ABSOLUTE BASOPHIL / ABSOLUTE EOSINOPHIL / ABSOLUTE LYMPHOCYTE / ABSOLUTE MONOCYTE / ABSOLUTE SEGMENTED NEUTROPHIL: tissue Blood", "key": {"[1]": {"conditions": "72 h, tissue Plasma, time 3 day"}, "[2]": {"conditions": "120 h, tissue Plasma, time 5 day"}, "[3]": {"conditions": "2184 h, tissue Plasma, time 91 day"}}, "note": "Where “and” joins values, the source holds several entries; their conditions need not be identical. Identical values can stand only once.", "data": [{"smiles": "O=c1cc(-c2ccccc2)oc2ccc3ccccc3c12", "note": "[BETA-NAPHTHOFLAVONE]", "values": [{"measurement": "BASOPHIL", "setting": "72 h, time 3 day", "value": 0.52, "unit": "%"}, {"measurement": "EOSINOPHIL", "setting": "72 h, time 3 day", "value": 0.48, "unit": "%"}, {"measurement": "ERYTHROCYTE COUNT", "setting": "72 h, time 3 day", "value": 6.68, "unit": "x10E6/uL"}, {"measurement": "HEMATOCRIT", "setting": "72 h, time 3 day", "value": 43.07, "unit": "%"}, {"measurement": "HEMOGLOBIN", "setting": "72 h, time 3 day", "value": 13.48, "unit": "G/DL"}, {"measurement": "LEUKOCYTE COUNT", "setting": "72 h, time 3 day", "value": 11.41, "unit": "x10E3/uL"}, {"measurement": "LYMPHOCYTE", "setting": "72 h, time 3 day", "value": 80.78, "unit": "%"}, {"measurement": "MEAN CORPUSCULAR HEMOGLOBIN", "setting": "72 h, time 3 day", "value": 20.2, "unit": "pg"}, {"measurement": "MEAN CORPUSCULAR HEMOGLOBIN CONCENTRATION", "setting": "72 h, time 3 day", "value": 31.32, "unit": "G/DL"}, {"measurement": "MEAN CORPUSCULAR VOLUME", "setting": "72 h, time 3 day", "value": 64.45, "unit": "fL"}, {"measurement": "MONOCYTE", "setting": "72 h, time 3 day", "value": 2.23, "unit": "%"}, {"measurement": "NEUTROPHIL", "setting": "72 h, time 3 day", "value": 14.73, "unit": "%"}, {"measurement": "PLATELET COUNT", "setting": "72 h, time 3 day", "value": 1225.83, "unit": "x10E3/uL"}, {"measurement": "ALANINE AMINOTRANSFERASE", "setting": "[1]", "value": 44.5, "unit": "u/L"}, {"measurement": "ALBUMIN", "setting": "[1]", "value": 3.62, "unit": "G/DL"}, {"measurement": "ALKALINE PHOSPHATASE", "setting": "[1]", "value": 404.5, "unit": "u/L"}, {"measurement": "ASPARTATE AMINOTRANSFERASE", "setting": "[1]", "value": 71.67, "unit": "u/L"}, {"measurement": "BLOOD UREA NITROGEN", "setting": "[1]", "value": 15, "unit": "mg/dL"}, {"measurement": "CHLORIDE", "setting": "[1]", "value": 103, "unit": "MEQ/L"}, {"measurement": "CHOLESTEROL", "setting": "[1]", "value": 96.83, "unit": "mg/dL"}, {"measurement": "CREATINE PHOSPHOKINASE", "setting": "[1]", "value": 236, "unit": "u/L"}, {"measurement": "CREATININE", "setting": "[1]", "value": 0.43, "unit": "mg/dL"}, {"measurement": "GLUCOSE", "setting": "[1]", "value": 186.83, "unit": "mg/dL"}, {"measurement": "PHOSPHORUS", "setting": "[1]", "value": 12.67, "unit": "mg/dL"}, {"measurement": "POTASSIUM", "setting": "[1]", "value": 7.1, "unit": "MEQ/L"}, {"measurement": "SODIUM", "setting": "[1]", "value": 147.33, "unit": "MEQ/L"}, {"measurement": "TOTAL BILIRUBIN", "setting": "[1]", "value": 0.52, "unit": "mg/dL"}, {"measurement": "TOTAL PROTEIN", "setting": "[1]", "value": 6.18, "unit": "G/DL"}, {"measurement": "ABSOLUTE BASOPHIL", "setting": "120 h, time 5 day", "value": 92, "unit": "cells/µL"}, {"measurement": "ABSOLUTE EOSINOPHIL", "setting": "120 h, time 5 day", "value": 52, "unit": "cells/µL"}, {"measurement": "ABSOLUTE LYMPHOCYTE", "setting": "120 h, time 5 day", "value": 6560, "unit": "cells/µL"}, {"measurement": "ABSOLUTE MONOCYTE", "setting": "120 h, time 5 day", "value": 160, "unit": "cells/µL"}, {"measurement": "ABSOLUTE SEGMENTED NEUTROPHIL", "setting": "120 h, time 5 day", "value": 1130, "unit": "cells/µL"}, {"measurement": "BASOPHIL", "setting": "120 h, time 5 day", "value": "1.14% and 0.92%"}, {"measurement": "EOSINOPHIL", "setting": "120 h, time 5 day", "value": "0.68% and 0.43%"}, {"measurement": "ERYTHROCYTE COUNT", "setting": "120 h, time 5 day", "value": "7.51 x10E6/uL and 7.03 x10E6/uL"}, {"measurement": "HEMATOCRIT", "setting": "120 h, time 5 day", "value": "46.04% and 46.55%"}, {"measurement": "HEMOGLOBIN", "setting": "120 h, time 5 day", "value": "15.62 G/DL and 14.32 G/DL"}, {"measurement": "LEUKOCYTE COUNT", "setting": "120 h, time 5 day", "value": "8.03 x10E3/uL and 12.22 x10E3/uL"}, {"measurement": "LYMPHOCYTE", "setting": "120 h, time 5 day", "value": "81.54% and 82.65%"}, {"measurement": "MEAN CORPUSCULAR HEMOGLOBIN", "setting": "120 h, time 5 day", "value": "20.84 pg and 20.35 pg"}, {"measurement": "MEAN CORPUSCULAR HEMOGLOBIN CONCENTRATION", "setting": "120 h, time 5 day", "value": "33.94 G/DL and 30.77 G/DL"}, {"measurement": "MEAN CORPUSCULAR VOLUME", "setting": "120 h, time 5 day", "value": "61.42 fL and 66.28 fL"}, {"measurement": "MONOCYTE", "setting": "120 h, time 5 day", "value": "2% and 2.28%"}, {"measurement": "NEUTROPHIL", "setting": "120 h, time 5 day", "value": "14.24% and 12.73%"}, {"measurement": "PLATELET COUNT", "setting": "120 h, time 5 day", "value": "1427.2 x10E3/uL and 1268.67 x10E3/uL"}, {"measurement": "ALANINE AMINOTRANSFERASE", "setting": "[2]", "value": "35.6 u/L and 44.5 u/L"}, {"measurement": "ALBUMIN", "setting": "[2]", "value": "3.64 G/DL and 3.73 G/DL"}, {"measurement": "ALKALINE PHOSPHATASE", "setting": "[2]", "value": "233 u/L and 340.83 u/L"}, {"measurement": "ASPARTATE AMINOTRANSFERASE", "setting": "[2]", "value": "81 u/L and 66.5 u/L"}, {"measurement": "BLOOD UREA NITROGEN", "setting": "[2]", "value": "12 mg/dL and 13.33 mg/dL"}, {"measurement": "CHLORIDE", "setting": "[2]", "value": "109.4 MEQ/L and 102.17 MEQ/L"}, {"measurement": "CHOLESTEROL", "setting": "[2]", "value": "47.6 mg/dL and 82.17 mg/dL"}, {"measurement": "CREATINE PHOSPHOKINASE", "setting": "[2]", "value": "183.2 u/L and 146.67 u/L"}, {"measurement": "CREATININE", "setting": "[2]", "value": "0.4 mg/dL and 0.35 mg/dL"}, {"measurement": "GLUCOSE", "setting": "[2]", "value": "134.6 mg/dL and 186.17 mg/dL"}, {"measurement": "LACTATE DEHYDROGENASE", "setting": "[2]", "value": 89.4, "unit": "u/L"}, {"measurement": "LIPASE", "setting": "[2]", "value": 17.2, "unit": "u/L"}, {"measurement": "PHOSPHORUS", "setting": "[2]", "value": "13.02 mg/dL and 11.83 mg/dL"}, {"measurement": "POTASSIUM", "setting": "[2]", "value": "7 MEQ/L and 6.47 MEQ/L"}, {"measurement": "SODIUM", "setting": "[2]", "value": "149.6 MEQ/L and 148.83 MEQ/L"}, {"measurement": "TOTAL PROTEIN", "setting": "[2]", "value": "6.06 G/DL and 6.27 G/DL"}, {"measurement": "URIC ACID", "setting": "[2]", "value": 1.04, "unit": "mg/dL"}, {"measurement": "ABSOLUTE BASOPHIL", "setting": "2184 h, time 91 day", "value": 130, "unit": "cells/µL"}, {"measurement": "ABSOLUTE EOSINOPHIL", "setting": "2184 h, time 91 day", "value": 70, "unit": "cells/µL"}, {"measurement": "ABSOLUTE LYMPHOCYTE", "setting": "2184 h, time 91 day", "value": 8670, "unit": "cells/µL"}, {"measurement": "ABSOLUTE MONOCYTE", "setting": "2184 h, time 91 day", "value": 160, "unit": "cells/µL"}, {"measurement": "ABSOLUTE SEGMENTED NEUTROPHIL", "setting": "2184 h, time 91 day", "value": 1530, "unit": "cells/µL"}, {"measurement": "BASOPHIL", "setting": "2184 h, time 91 day", "value": 1.13, "unit": "%"}, {"measurement": "EOSINOPHIL", "setting": "2184 h, time 91 day", "value": 0.66, "unit": "%"}, {"measurement": "ERYTHROCYTE COUNT", "setting": "2184 h, time 91 day", "value": 9.13, "unit": "x10E6/uL"}, {"measurement": "HEMATOCRIT", "setting": "2184 h, time 91 day", "value": 48.47, "unit": "%"}, {"measurement": "HEMOGLOBIN", "setting": "2184 h, time 91 day", "value": 16.56, "unit": "G/DL"}, {"measurement": "LEUKOCYTE COUNT", "setting": "2184 h, time 91 day", "value": 10.5, "unit": "x10E3/uL"}, {"measurement": "LYMPHOCYTE", "setting": "2184 h, time 91 day", "value": 81.63, "unit": "%"}, {"measurement": "MEAN CORPUSCULAR HEMOGLOBIN", "setting": "2184 h, time 91 day", "value": 18.16, "unit": "pg"}, {"measurement": "MEAN CORPUSCULAR HEMOGLOBIN CONCENTRATION", "setting": "2184 h, time 91 day", "value": 34.14, "unit": "G/DL"}, {"measurement": "MEAN CORPUSCULAR VOLUME", "setting": "2184 h, time 91 day", "value": 53.14, "unit": "fL"}, {"measurement": "MONOCYTE", "setting": "2184 h, time 91 day", "value": 1.53, "unit": "%"}, {"measurement": "NEUTROPHIL", "setting": "2184 h, time 91 day", "value": 14.71, "unit": "%"}, {"measurement": "PLATELET COUNT", "setting": "2184 h, time 91 day", "value": 1280.22, "unit": "x10E3/uL"}, {"measurement": "ALANINE AMINOTRANSFERASE", "setting": "[3]", "value": 28.89, "unit": "u/L"}, {"measurement": "ALBUMIN", "setting": "[3]", "value": 3.69, "unit": "G/DL"}, {"measurement": "ALKALINE PHOSPHATASE", "setting": "[3]", "value": 101.11, "unit": "u/L"}, {"measurement": "ASPARTATE AMINOTRANSFERASE", "setting": "[3]", "value": 70.67, "unit": "u/L"}, {"measurement": "BLOOD UREA NITROGEN", "setting": "[3]", "value": 16.78, "unit": "mg/dL"}, {"measurement": "CHLORIDE", "setting": "[3]", "value": 104.56, "unit": "MEQ/L"}, {"measurement": "CHOLESTEROL", "setting": "[3]", "value": 58.78, "unit": "mg/dL"}]}]}
